# Laboratory results as given in patent US9670217B2, “Process for preparing chlorins and their pharmaceutical uses” (UNIVERSIDADE DE COIMBRA, priority 2008, dated 2017).
# Values joined by “and” are separate entries in the source; they are usually repeats but may differ in a detail not shown here. Equal values may be shown once.
# Assays:
# [1] = test system: HT-29 (human adenocarcinoma); experiment: Cell photosensitization, 748 nm diode laser, resazurin; assay type: cell-based; details: for concentration of sensitizer required to kill 90% of cells (LD90): 6 J/cm^2 diode laser irradiation at 28.5 mW
# [2] = Singlet oxygen quantum yield and lifetime (1270 nm phosphorescence); assay type: physicochemical; details: air-saturated ethanol; for ΦΔ (singlet oxygen quantum yield): phenalenone as reference
# Procedure: Absorption spectra were recorded on a Shimadzu UV-2100 spectrophotometer or with a Carry 50 Biospectrophotometer (Varian, Mulgrave, USA). Fluorescence spectra were measured with a Spex Fluorolog 3 spectrophotometer, with correction for the wavelength dependence system (RCA C31034 photomultiplier), or with a PerkinElmer LS 50 spectrofluorimeter. Transient absorption spectra were measured with an Applied Photophysics LKS 60 nanosecond laser flash photolysis kinetic spectrometer, using the third harmonic of a Spectra-Physics Quanta Ray GCR 130-01 Nd/YAG laser for excitation, a Hamamatsu 1P28 photomultiplier and a Hewlett-Packard Infinium oscilloscope (1 GS/s). Flash photolysis measurements were made in the presence of air and in argon saturated solutions. Photoacoustic calorimetry employed the same Nd/YAG laser, a home-made front-face photoacoustic cell with a 2.25 MHz Panametrics transducer (model 5676) and a Tektronix DSA 601 transient recorder. Room-temperature singlet-oxygen phosphorescence was measured at 1270 nm with a Hamamatsu R5509-42 photomultiplier, cooled to 193 K in a liquid nitrogen chamber (Products for Research model PC176TSCE005), following laser excitation of aerated solutions at 355 nm, using an adapted Applied Photophysics spectrometer. Singlet oxygen emission at 1270 nm was also monitored with a liquid nitrogen-cooled germanium detector (North Coast) coupled to a Tectronix Digitizing scope (TDS 520B), following sample excitation with 5 ns laser pulses of the third harmonic (355 nm) generated by a Q-switched Nd:YAG laser (Continuum Surelite II).
# Singlet oxygen quantum yields in ethanol were obtained using a procedure described by some of us, using phenalenone as reference. The literature value for the singlet oxygen quantum yield obtained with phenalenone in ethanol is ΦΔ=0.95 [38].
# All the singlet oxygen emissions measured in aerated ethanol solutions are very well described by mono-exponential decays, with typical singlet oxygen lifetimes (τΔ). The ΦΔ values of Table 1 were obtained by the procedures described above and are representative of these photosensitisers.
# An air-saturated solution of Luzitin-Cl2Hep in ethanol with an absorbance ca. 0.2 at 355 nm was excited in a 1 cm quartz cuvette by a pulsed Nd:YAG laser, and the singlet oxygen emission was followed at 1270 nm, using the equipment and methods previously described. The intensity of the singlet oxygen phosphorescence was studied as a function of the laser intensity. A similar study was made with phenalenone in ethanol, at a concentration matching the absorbance of Luzitin-Cl2Hep at 355 nm. […] Various laser energies were employed and from the slopes of the energy dependence of singlet oxygen emission and the value of ΦΔ=0.95 for phenalenone in this ethanol, we obtained ΦΔ=0.78 for Luzitin-Cl2Hep.
# [3] = test system: PC-3 (human prostate carcinoma); experiment: Cytotoxicity in the dark, resazurin assay; assay type: cell-based
# Procedure: The cell lines employed in laser irradiation were the HT-29 (human colon carcinoma), PC-3 (human prostate carcinoma), SW2 (human small cell lung cancer), A-549 (human non-small cell lung cancer). S91/I3 (mouse melanoma) and CT26 (mouse colon carcinoma). They were used both for cytotoxicity and photocytotoxicity experiments. PC-3. SW2 and S91113 cells were cultured in RPMI-1640 medium (Sigma-Aldrich, Steinheim, Germany) and HT-29, A-549 and CT26 cells were cultured in Dulbecco's Modified Eagle Medium (DMEM) (Cambrex Bioscience, Verviers, Belgium). Both cell culture mediums were supplemented with 10% heat-inactivated Fetal Bovine Serum (FBS) (Cambrex Bioscience, Verviers, Belgium) and 100 IU/ml penicillin-100 μg/ml streptomycin (Cambrex Bioscience, Verviers, Belgium). The DMEM medium used for CT26 cells was also supplemented with HEPES 10 mM. Cell lines were maintained in 75 cm^2 flasks (Orange Scientific, Braine-l'Alleud, Belgium) at 37° C. in humidified atmosphere with 5% CO2. For the in vitro studies, cells at 85-90% confluence, were detached with Trypsin-Versene-EDTA solution (Cambrex Bioscience, Verviers, Belgium), counted and seeded in flat-bottom 96-well plates at the desired densities.
# Cell viability assay. In the end of the experiences cell viability was evaluated by the resazurin reduction assay. Briefly, resazurin (Sigma-Aldrich, Steinhelm, Germany) stock solution (0.1 mg/ml in phosphate buffer saline (PBS) pH 7.4) was diluted 10% in culture medium without FBS or antibiotics and 200 μl were added to the cells in each well. Plates were incubated for 3-4 h at 37° C. The absorbance values of each well were measured at 540 nm and 630 nm using a microplate reader Multiskan Ex (Thermo-Electron Corporation, Vartaa, Finland).
# Cytotoxicity. Cells were seeded in flat-bottom 96-well plates (Orange Scientific, Braine-l'Alleud, Belgium) in 100 μl of culture medium and were allowed to adhere overnight. The photosensitizer was added to the cells (diluted in 100 μl culture medium) at final concentrations between 0.01 and 1 mM. Each concentration was tested in quadruplicate. The incubation periods in the dark at 37° C. were two times the doubling time for the tested cell line. After the incubation the cell viability was evaluated. In parallel control experiments, cells were incubated without the drug. Cytotoxicity was quantified by expressing cell death relatively to untreated cells (% of control cells). The results were plotted as dose response curves (% of cell death as a function of the concentration of the DRUG), which allow the determination of the concentration that inhibit 50% of cell growth (IC50).
# [4] = test system: A-549 (human non-small cell lung carcinoma); experiment: Cell photosensitization, 748 nm diode laser, resazurin; assay type: cell-based; details: 6 J/cm^2 diode laser irradiation at 28.5 mW
# [5] = Bacteriochlorin pharmacokinetics and biodistribution following ip administration, S91 tumor-bearing mice; details: 10 mg/kg ip
# [6] = In vivo toxicity in the dark; set-up: species or system DBA/2 mice; details: for sensitivity to light: first 6 days
# Excerpt: The mice used in the present study were form two sources. Dark toxicity, biodistribution and farmacokinetic studies employed DBA/2 mice, weighing 20-30 g, from the animal breeding facility at the Faculty of Biochemistry, Biophysics and Biotechnology, Jagiellonian University, Krakow. The mice were kept on a standard laboratory diet with free access to drinking water. The use of such animals for experimental purposes was approved by the Jagiellonian University Committee for Ethics of Experiments on Animals (decision No. 384/99). Such mice were also employed in PDT.
# The mice were divided into the following experimental groups:
# The solutions of Luzitin-Cl (0.5 ml) were injected subcutaneously and for 30 days the animals were closely observed. […] They manifested such sensitivity by moving away from light sources directly pointed at them. […] After 30 days the animals were anaesthetized using Morbital (Biowet, Poland), their organs and tissue samples were excised, and blood morphology as well as histology of selected organs tests was performed.
Compound,concentration of sensitizer required to kill 90% of cells (LD90) [1],τΔ (singlet oxygen lifetime) [2] [μsec],ΦΔ (singlet oxygen quantum yield) [2],"highest concentration that causes relatively no effect in viability in the dark ([3]; PC-3, dark) [mM]",concentration of sensitizer required to kill 90% of cells (LD90) [4] [µM],accumulation in the skin [5],time to clearance from most of the organs [5] [h],concentration in tumor relative to muscle ([5]; one day after administration) [times],"IC50 ([3]; PC-3, incubation 72 h in the dark, read-out: IC50 dark toxicity) [µM]","sensitivity to light ([6]; 15 mg/kg subcutaneous, some animals)",sensitivity to light ([6]; 20 mg/kg subcutaneous),"body mass changes ([6]; 2-20 mg/kg subcutaneous, 30 days)","blood morphology and histology of selected organs ([6]; 2-20 mg/kg subcutaneous, after 30 days)","cell kill ([1]; 1 μM, laser light dose 6 J/cm^2, incubation 18 hours) [%]"
"O=S(=O)(O)c1ccc(Cl)c(-c2c3nc(c(-c4c(Cl)ccc(S(=O)(=O)O)c4Cl)c4ccc([nH]4)c(-c4c(Cl)ccc(S(=O)(=O)O)c4Cl)c4nc(c(-c5c(Cl)ccc(S(=O)(=O)O)c5Cl)c5ccc2[nH]5)CC4)CC3)c1Cl [Luzitin-Cl2, 5,10,15,20-tetrakis(2,6-dichloro-3-sulfonylphenyl)bacteriochlorin]",50 µM,15.4,0.85,0.05,–,–,–,–,–,–,–,–,–,–
"CCNS(=O)(=O)c1ccc(Cl)c(-c2c3nc(c(-c4c(Cl)ccc(S(=O)(=O)NCC)c4Cl)c4ccc([nH]4)c(-c4c(Cl)ccc(S(=O)(=O)NCC)c4Cl)c4nc(c(-c5c(Cl)ccc(S(=O)(=O)NCC)c5Cl)c5ccc2[nH]5)CC4)CC3)c1Cl [Luzitin-Cl2Et, 5,10,15,20-tetrakis(2,6-dichloro-3-N-ethylsulfamoylphenyl)bacteriochlorin]",10 µM,13.7,0.66,–,10,–,–,–,–,–,–,–,–,–
"O=S(=O)(O)c1ccc(Cl)c(-c2c3nc(c(-c4cc(S(=O)(=O)O)ccc4Cl)c4ccc([nH]4)c(-c4cc(S(=O)(=O)O)ccc4Cl)c4nc(c(-c5cc(S(=O)(=O)O)ccc5Cl)c5ccc2[nH]5)CC4)CC3)c1 [Luzitin-Cl, 5,10,15,20-tetrakis(2-chloro-5-sulfonylphenyl)bacteriochlorin]",–,13.6,0.43,–,–,negligible,24,3,600,slight sensitivity,revealed sensitivity to the light,no significant mass changes were observed,No changes were observed in the blood or in organs,–
"CNS(=O)(=O)c1ccc(F)c(-c2c3nc(c(-c4cc(S(=O)(=O)NC)ccc4F)c4ccc([nH]4)c(-c4cc(S(=O)(=O)NC)ccc4F)c4nc(c(-c5cc(S(=O)(=O)NC)ccc5F)c5ccc2[nH]5)CC4)CC3)c1 [Luzitin-FMet, 5,10,15,20-tetrakis(2-fluoro-5-N-methylsulfamoylphenyl)bacteriochlorin]",0.5 µM and 1 µM,14.1,0.71,–,0.5,–,–,–,–,–,–,–,–,100
